From patent US5620676A, “Biologically active ATP analogs” (priority 1995, dated 1997) come the findings set out here.

“Also recorded” adds a separate entry of the source.

Assay [1] addresses T1, P2X receptor (urinary bladder) (Cavia porcellus, UniProt A0A286XVA9).
T1 construct: guinea pig isolated urinary bladder detrussor muscle; from tissue; host or cells: guinea pig isolated urinary bladder detrusor muscle
Nature of the assay: Contraction of guinea pig isolated urinary bladder detrussor muscle. The following applies: for activity/potency in words, bladder: guinea pig urinary bladder.
From the text: (§1) Muscular relaxation/contraction: Relaxant responses mediated via P2Y receptors were examined in guinea pig taenia coli, rabbit aorta, and rabbit mesenteric artery, as described by Hoyle et al. (Br. J. Pharmacol., 107, 367-374 (1992a)), Burnstock et al., (Br. J. Pharmacol., 90, 383-391 (1987a)), and Rubino et al., (Eur. J. Pharmacol., 212, 237-240 (1992)). Contractile responses mediated via P2X receptors were examined in the guinea pig urinary bladder and vas deferens, and rabbit saphenous artery, also using standard methods (see Hoyle et al., supra., 1992; Hoyle et al., Br. J. Pharmacol., 99, 617-621 (1990); and Burnstock et al., Br. J. Pharmacol., 90, 111-120 (1987b)).
(§2) In FIG. 14, the x-axis is also marked in units of the negative log of the molar concentration of applied putative P2Y receptor agonists and the y-axis is marked in units of the percentage relaxation of the 1 μM noradrenalin-induced contraction of rabbit aorta endothelium. In FIGS. 15-16, the x-axis is marked in units of the negative log of the molar concentration of applied putative p^2X receptor agonists and the y-axis is marked in units of the percentage contraction relative to a standard dose of KCl (i.e., 60 mM), as assessed in guinea pig isolated urinary bladder detrussor muscle (FIG. 15) and guinea pig isolated vas deferens (FIG. 16).

Assay [2] deals with T2, P2X receptor (vas deferens) (Cavia porcellus, UniProt A0A286XVA9).
T2 sequence (A0A286XVA9 1-399): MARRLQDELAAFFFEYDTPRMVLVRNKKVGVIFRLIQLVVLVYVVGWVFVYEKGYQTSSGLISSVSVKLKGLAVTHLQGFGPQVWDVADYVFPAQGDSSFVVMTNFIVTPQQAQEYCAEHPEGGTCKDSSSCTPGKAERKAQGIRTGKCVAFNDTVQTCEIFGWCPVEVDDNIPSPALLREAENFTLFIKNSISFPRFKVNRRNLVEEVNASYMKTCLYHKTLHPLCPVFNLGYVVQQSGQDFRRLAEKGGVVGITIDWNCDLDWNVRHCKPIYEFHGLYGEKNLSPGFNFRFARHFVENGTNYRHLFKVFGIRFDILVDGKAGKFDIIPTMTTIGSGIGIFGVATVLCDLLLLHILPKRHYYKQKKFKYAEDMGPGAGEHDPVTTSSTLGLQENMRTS
The assay is described as follows: Contraction of guinea pig isolated vas deferens.
From the text: as §1, §2

The subject of assay [3] is P2X and P2Y receptors. Nature of the assay: Overall activity in the seven P2X and P2Y preparations.
The target of assay [4] is T3, P2Y receptor (taenia coli) (Cavia porcellus, UniProt P59902).
T3 construct: Relaxant responses mediated via P2Y receptors were examined in guinea pig taenia coli; from tissue; host or cells: guinea pig taenia coli (carbachol-contracted)
T3 sequence (P59902 whole entry): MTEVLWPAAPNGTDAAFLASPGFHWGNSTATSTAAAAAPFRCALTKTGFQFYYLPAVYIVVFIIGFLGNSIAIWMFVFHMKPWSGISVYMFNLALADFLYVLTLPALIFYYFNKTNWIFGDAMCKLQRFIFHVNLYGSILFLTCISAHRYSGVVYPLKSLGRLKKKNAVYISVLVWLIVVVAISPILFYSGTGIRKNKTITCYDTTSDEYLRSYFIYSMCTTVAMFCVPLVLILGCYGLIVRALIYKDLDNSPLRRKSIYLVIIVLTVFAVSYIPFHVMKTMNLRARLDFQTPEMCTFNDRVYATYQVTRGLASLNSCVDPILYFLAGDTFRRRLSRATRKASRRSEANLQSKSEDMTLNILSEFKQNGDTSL
Nature of the assay: Relaxation of carbachol-contracted guinea pig taenia coli. Put shortly: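 Guinea pig taenia coli precontracted with 50 nM carbachol; relaxation to applied P2Y agonists expressed as percentage relaxation against negative log molar agonist concentration.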

Assay [5] concerns P2X receptor (rat urinary bladder membranes). The assay is described as follows: Displacement of [3H]-α,β-methylene-ATP from rat urinary bladder membranes. The following applies: about 10 nM [3H]-α,β-MeATP. It is filed as binding. The protocol:
Certain ATP analogs known to bind to P2Y receptors, as disclosed in Examples 4-9, were tested on membrane preparations of urinary bladder, which is known to include P2X receptors (See, e.g., Lukacsko et al., Eur. J. Pharmacol., 80, 401-406 (1982)). The assay used is predicated on the specific displacement of […] known to bind at the P2X receptor, namely α,β-methylene-ATP.
For this assay, male Wistar rats (200-250 g) were killed by asphyxiation with CO2. […] The pellets were washed and suspended in buffer A and the protein content was determined using the method of Peterson (Anal. Biochem., 83, 346-356 (1977)).
Displacement experiments were carried out by incubating the membrane preparations with about 10 nM [^3 H]-α,β-MeATP and various concentrations of an unlabeled ligand in buffer A at 4° C. for 120 min (final volume 0.5 ml). […] The filters were washed with 2 aliquots of 5 ml ice-cold 5 mM Tris/HCl buffer, pH 7.4, dried under an infrared lamp, and then the radioactivity trapped in the filters was measured in a Beckman SC6100 I scintillation counter with an efficiency of about 56 to 61%. Non-specific binding was determined by including 100 μM β,γ-methylene-ATP in the incubation mixture.

By EC50 is commonly meant the concentration giving half of the maximal effect. A low value points to an effect from little substance.

For `N#CCCCCCCSc1nc(N)c2ncn([C@@H]3O[C@H](COP(=O)(O)OP(=O)(O)OP(=O)(O)O)[C@@H](O)[C@H]3O)c2n1` [2-(6-Cyanohexylthio)-ATP, 2-(6-Cyanohexylthio)adenosine-5'-triphosphate], the “activity/potency in words, bladder” value in assay [1] is “it produced tonic contractions rather than the phasic; also recorded: much less potent than ATP under the same conditions”; in assay [1] (listed as 2-(6-cyanohexyl)thio ATP), “produced tonic contractions rather than the typical phasic contractions of ATP”; in assay [1] (listed as 2-(6-cyanohexyl)thio-ATP), “produced contractions that were less tonic, and with a lower potency than ATP under the same conditions”; in assay [1] (listed as 2-(6-cyanohexylthio)-ATP), “potent agonists in the vas deferens and urinary bladder”. Besides, in assay [1] (guinea pig urinary bladder P2X receptors), the “times more potent than ATP, bladder” value is “approximately 100 times”. The “activity/potency in words, vas deferens” value in assay [2] is “potent agonists in the vas deferens and urinary bladder”. The “overall activity in words, all preparations” value in assay [3] was “more potent than ATP in all systems except the P2X system of the saphenous artery”. In assay [4], this compound had an EC50 of 1.58 nM.
With `C=CCCCCSc1nc(NC)c2ncn([C@@H]3O[C@H](COP(=O)(O)OP(=O)(O)OP(=O)(O)O)[C@@H](O)[C@H]3O)c2n1` [N^6 -Me-2-(5-hexenyl)-thio-ATP, N^6 -Me-2-(5-hexenylthio)adenosine 5'-triphosphate], the “P2X binding in words” value in assay [5] is “two orders of magnitude greater concentration”. For the same compound, in assay [4] (guinea pig taenia coli, log molar units), the “relaxation pD2, taenia coli” value was 7.2.
